Assay results: patent publication US10138235B2, “Pyrazolopyridine derivatives, preparation process therefor and therapeutic use thereof” (SANOFI, priority 2011, dated 2018)

Tests used:
[1] = system: HUVEC cells stimulated with FGF-2; experiment: In vitro angiogenesis of HUVEC cells induced with FGF-2 (length of pseudotubules); type: cell-based, human; conditions: concentration at which active on FGF-2-induced angiogenesis of HUVEC cells, evaluated from 0.03 nM to 300 nM; for minimal effective concentration: Homo sapiens, 24 h
Protocol: To do this, matrices composed of matrigel (growth factor reduced matrigel, Becton Dickinson 356230) and of collagen (rat tail collagen type I, Becton Dickinson 354236) are deposited in an amount of 160 μl into each chamberslide well (Biocoat Cellware collagen, Type I, 8-well culturesides: Becton dickinson 354630), or 60 μl per well of 96-plate wells (Biocoat collagenl cellware, Becton Dickinson 354407). The matrix is prepared by mixing ⅓ of matrigel, 1 mg/ml final of collagen, 0.1N NaOH (0.026× the volume of collagen in μl), PBS 1×, and the volume is then adjusted with water. The gels are kept for 1 hour at 37° C. to allow their polymerization. Next, the human venous endothelial cells (HUVEC ref.: C-12200—Promocell) were seeded at 15×10^3 or 6×10^3 cells/well in 400 or 120 μl (for the 8-well or 96-well plates, respectively) of EBM medium (Clonetics C3121)+2% FBS+hEGF 10 μg/ml. They are stimulated with 1 or 3 ng/ml of FGF-2 (R&D system, 133-FB-025; Invitrogen, PHG0026) for 24 hours at 37° C. in the presence of 5% CO2. After 24 hours, the length of the network of microtubules formed is measured by means of the computer-assisted image analysis system (Imagenia Biocom, Courtaboeuf, France) and the total length of the pseudotubules in each well is determined. The mean total length of the microcapillary network is calculated in μm for each condition corresponding to the mean on 6 replicates
Stimulation with FGF-2 allows induction of the formation of new tubules. An FGF-R antagonist is considered as being active in this test if it is capable of partially inhibiting this angiogenesis at a dose of less than or equal to 300 nM.
In this experiment, the molecules are evaluated from 0.03 nM to 300 nM depending on the molecule with regard to induction of the angiogenesis of human HUVEC cells with FGF-2. Compounds 38 (Example 2), 46 (Example 1), 53 (Example 3), 56 (Example 4), 57 (Example 6), 61 (Example 5), 75 (Example 12), 83 (Example 13), 88 (Example 8), 91 (Example 15), 93 (Example 14), 106 (Example 11), 108 (Example 7) and 114 (Example 9) are active since they have inhibitory activity on the formation of pseudotubules of greater than or equal to 20% at a dose of less than or equal to 300 nM (FIG. 1). In the following table, A=active for a concentration<1 nM, B=active at a concentration of 1 nM, C=active at a concentration of 3 nM, D=active at a concentration of 10 nM, E=active at a concentration of 30 nM, and F=active at a concentration of 300 nM.

[2] = system: inflammatory angiogenesis in mice; experiment: Model of inflammatory angiogenesis in mice (air pocket granuloma); type: in vivo; conditions: 30 mg/kg, after one week of treatment
Protocol: The model described by Colville-N H et al. in 1995 makes it possible to study pharmacological agents that are capable of modulating the appearance of angiogenesis in an inflammatory context. The model is developed on female OF1 mice (Charles River laboratories) weighing about 25 g, and per group of 12. The animals are anaesthetized intraperitoneally with pentobarbital sodium (60 mg/kg; Sanofi Nutrition Santé Animale). An air pocket is created on the mouse's back by injecting 3 ml of air subcutaneously. After waking up, the animals receive a treatment in general by gavage and receive an injection of 0.5 ml of Freud's adjuvant (Sigma) with 0.1% croton oil (Sigma) into the pocket. Seven days later, the mice are again anaesthetized and placed on a hotplate at 40° C. 1 ml of carmine red (Aldrich Chemicals, 5% in 10% of gelatin) is injected into the caudal vein. The animals are then placed at 4° C. for 2-3 hours. The skins are then removed and dried for 24 hours in an oven at 56° C. […] The filtrates are read in a spectrophotometer at 492 nm against a calibration range of carmine red. […] The results are expressed as mean values (±sem). […]
The FGF-R antagonists are evaluated between 1 and 50 mg/kg using methylcellulose/Tween (0.6% v/v) as vehicle or any other vehicle that enables dissolution of the active principle. […]

Row | Compound | minimal effective concentration [1] | weight of granuloma (dry weight of the skin) [2] | melting point | Activity [1]
1 | COc1cc(-c2cc(C(=O)O)c3cn[nH]c3n2)ccc1N [Compound 38, 6-(4-Amino-3-methoxyphenyl)-1H-pyrazolo[3,4-b]pyridine-4-carboxylic acid] | 0.003 µM | – | – | –
2 | NC(=O)c1cc(-c2ccc(F)c(C(=O)O)c2)nc2[nH]nc(-c3ccccc3)c12 [Compound 46, 5-(4-Carbamoyl-3-phenyl-1H-pyrazolo[3,4-b]pyridin-6-yl)-2-fluorobenzoic acid] | < 0.001 µM | significantly reduces | – | –
3 | O=C(O)c1cc(-c2cc(C(F)F)c3c(-c4ccccc4)n[nH]c3n2)ccc1F [Compound 53, 5-[4-(Difluoromethyl)-3-phenyl-1H-pyrazolo[3,4-b]pyridin-6-yl)-2-fluorobenzoic acid] | < 0.001 µM | – | – | –
4 | O=C(O)c1cc(-c2cc(C(F)(F)F)c3c(-c4ccccc4)n[nH]c3n2)ccc1F [Compound 56, 2-Fluoro-5-[3-phenyl-4-(trifluoromethyl)-1H-pyrazolo[3,4-b]pyridin-6-yl]benzoic acid] | < 0.001 µM | – | – | –
5 | Cn1nc(-c2ccccc2)c2c(C(F)(F)F)cc(-c3ccc(N)c(C#N)c3)nc21 [Compound 57, 2-Amino-5-[1-methyl-3-phenyl-4-(trifluoromethyl)-1H-pyrazolo[3,4-b]pyridin-6-yl]benzonitrile] | 0.003 µM | – | 269 °C | –
6 | CN(C)c1ccc(-c2cc(C(F)(F)F)c3c(-c4ccccc4)n[nH]c3n2)cc1 [Compound 61, N,N-Dimethyl-4-[3-phenyl-4-(trifluoromethyl)-1H-pyrazolo[3,4-b]pyridin-6-yl]aniline] | 0.001 µM | – | 227 °C | –
7 | Cn1ncc2c(C(F)F)cc(-c3ccc(N)c(C#N)c3)nc21 [Compound 72, 2-Amino-5-[4-(difluoromethyl)-1-methyl-1H-pyrazolo[3,4-b]pyridin-6-yl]benzonitrile] | 0.01 µM | – | 251 °C | –
8 | N#Cc1cc(-c2cc(C(F)F)c3cn[nH]c3n2)ccc1N [Compound 75, 2-Amino-5-[4-(difluoromethyl)-1H-pyrazolo[3,4-b]pyridin-6-yl]benzonitrile] | 0.01 µM | – | 263 °C | –
9 | CN(C)CCn1ncc2c(C(F)F)cc(-c3ccc(N)c(C#N)c3)nc21 [Compound 83] | – | – | – | D (D=active at a concentration of 10 nM)
10 | Cn1ncc2c(C(F)(F)F)cc(-c3ccc(N)c(C#N)c3)nc21 [Compound 88, 2-Amino-5-[1-methyl-4-(trifluoromethyl)-1H-pyrazolo[3,4-b]pyridin-6-yl]benzonitrile] | 0.003 µM | – | 276 °C | –
11 | N#Cc1cc(-c2cc(C(F)F)c3c(-c4cccnc4)n[nH]c3n2)ccc1N [Compound 91, 2-Amino-5-[4-(difluoromethyl)-3-(pyridin-3-yl)-1H-pyrazolo[3,4-b]pyridin-6-yl]benzonitrile] | 0.3 µM | – | 296 °C | –
12 | Cn1nc(-c2cccnc2)c2c(C(F)(F)F)cc(-c3cccc(CN4CCOCC4)c3)nc21 [Compound 93] | – | – | – | F (F=active at a concentration of 300 nM)
13 | Cn1cc2c(C(F)F)cc(-c3ccc(N)c(C#N)c3)nc2n1 [Compound 106, 2-Amino-5-[4-(difluoromethyl)-2-methyl-2H-pyrazolo[3,4-b]pyridin-6-yl]benzonitrile] | < 0.001 µM | – | – | –
14 | Cn1nc2nc(-c3ccc(N)c(C#N)c3)cc(C(F)(F)F)c2c1-c1ccccc1 [Compound 108, 2-Amino-5-[2-methyl-3-phenyl-4-(trifluoromethyl)-2H-pyrazolo[3,4-b]pyridin-6-yl]benzonitrile] | 0.003 µM | – | 295 °C | –
15 | Cn1cc2c(C(F)(F)F)cc(-c3ccc(N)c(C#N)c3)nc2n1 [Compound 114, 2-Amino-5-[2-methyl-4-(trifluoromethyl)-2H-pyrazolo[3,4-b]pyridin-6-yl]benzonitrile] | 0.003 µM | – | 249 °C | –
